Results from US4357344A, “Polybutylbenzylphenols and benzyl-3,4-methylenedioxybenzenes in insect population control” (The United States of America as represented by the …, priority 1979, dated 1982).

How the values were obtained:
[1] = Solubility in water; format: physicochemical
[2] = system: flies (family Muscidae); experiment: Chemosterilancy tests (egg hatch and pupal development; Examples 6-9); format: in vivo
Method: (§1) The compound to be tested was administered in a standard fly food containing 6 parts of sugar, 6 parts of powdered non-fat dry milk, and 1 part of powdered egg yolk. Treated food was prepared by mixing an appropriate amount of a solution or suspension of CBCP in acetone with a batch of the food. The acetone was evaporated (4-6 hours) and the dry material was repulverized.
(§2) Chemosterilancy tests: If eggs were laid in the above tests, the cups were filled with water and stirred to break up the egg masses. A random sample of 100 eggs from each cup was collected and placed on a small piece of black cloth which was then laid on top of moist larva-rearing medium in a rearing container. Observations were made to determine percentage of egg hatch and pupal development.
The procedure outlined in Example 6 was followed using a Group II compound.
The procedure outlined in Example 6 was followed using Group III compounds. The results are summarized below:
The procedure outlined in Example 6 was followed substituting a Group IV compound for those of Group I. The table below provides a summary of results.

[3] = system: screwworm flies; experiment: Anti-procreant tests on screw-worm fly; format: in vivo; details: 0.10% in food
Method: These tests were conducted on mass-reared screwworm flies which had been obtained as pupae from the screwworm fly plant at Mission, Texas. The flies were held in cages with water and undiluted corn syrup in a colony room maintained at about 27° C. and 60% relative humidity (RH) with a 12-hour photoperiod beginning at 6 a.m. Adults that emerged were lightly anesthetized with CO2 for ease of manipulation the same day.
The mixtures obtained were fed to the flies in "Dixie" paper cups, 7 cm diameter, and rice hulls were placed on the surface of the food to prevent the flies from getting stuck in the viscous mixture.
Initially, varying concentrations of a chemosterilant were fed to the flies for the first 5 days of life. Thereafter, the chemosterilant was replaced with pure corn syrup. On the 7th day, 3 replicates of 10 flies were stimulated to oviposit and the flies which oviposited were checked for insemination by an examination of the spermathecae for live sperms. The total number of eggs per fly was estimated and the hatchability of these eggs (fertility) was determined 24 hours later (at 37° C.). Observations were made to determine percentage of egg hatch.

[4] = system: flies (family Muscidae); experiment: Oviposition inhibition tests (treated fly food; Examples 6-9); format: in vivo
Method: The compound to be tested was administered in a standard fly food containing 6 parts of sugar, 6 parts of powdered non-fat dry milk, and 1 part of powdered egg yolk. Treated food was prepared by mixing an appropriate amount of a solution or suspension of CBCP in acetone with a batch of the food. The acetone was evaporated (4-6 hours) and the dry material was repulverized. Oviposition inhibition tests: Samples of treated food with a container of water were placed in cages containing 100 newly-emerged adult flies (family Muscidae). After the flies had been exposed to the treated diet for 6-7 days, 1/2 inch of moist standard fly larva-rearing medium (CSMA) in souffle cups was placed in the cages for oviposition. After 4-6 hours, the cup was removed and examined for eggs. […] The procedure outlined in Example 6 was followed using a Group II compound. The procedure outlined in Example 6 was followed using Group III compounds. The results are summarized below: The procedure outlined in Example 6 was followed substituting a Group IV compound for those of Group I. The table below provides a summary of results.

[5] = system: male flies (family Muscidae); experiment: Sterilization of treated males crossed with virgin untreated females; format: in vivo
Method: as §1
(§3) These flies were maintained on untreated fly food. After 5 days, cups containing the larval-rearing medium was provided as previously described and a 100-egg sample was collected and place on moist larve-rearing medium. About a week after oviposition, examination was made to determine the percentage of hatched eggs and of pupae developed.

[6] = system: early fourth-stage larvae of the common malaria mosquito (Anopheles quadrimaculatus); experiment: Growth-inhibition tests on mosquito larvae; format: in vivo; details: in water; corrected by Abbott's formula
Method: The compound to be tested was added to one liter of water until the final concentration thereof was a growth-inhibiting amount. Fifty early fourth-stage larvae of the common malaria mosquito (Anopheles quadrimaculatus) were placed on this water. Larval food was administered daily. Dead larvae and pupae were removed, counted, and discarded daily. Live pupae were removed, rinsed, and transferred to a cup of distilled water. The cup was placed in an emergence cage, and the emerging adults, if any, were maintained on a sugar-water diet.
The effectiveness of the compound in inhibiting growth was determined by adding the number of dead larvae and pupae and the number of adults that were dead, unable to complete eclosion, and malformed. This sum was corrected by Abbott's formula (to adjust for the number of larvae or pupae which would die naturally) and designated as the GI (growth inhibition). The results are expressed as GI-90, i.e., the concentration of growth inhibitor in ppm that would prevent and/or retard growth in 90% of the treated larvae.

[7] = system: Salmonella tester strains TA-100, TA-98, TA-1537; experiment: Ames' Salmonella/microsome mutagenicity procedure; details: for mutagenic activity: TA-100, TA-98, TA-1537, without or with metabolic activation
Method: The mutagenic activity of D, A, B, M, N, and CC were tested by the standard Ames' Salmonella/microsome procedure, which is reported to show better than 90% correlation with development of mammalian cancers (Ames et al., Mutation Research, Vol. 31, p. 347, 1975; McCann et al., Proc. Nat. Acad. Sci., Vol. 72, p. 5135, 1975). Tester strains TA-100, TA-98, TA-1537 and the plate test method were used, employing concentrations of 10, 100, 1000, and 10,000 […]. The metabolic activation mixture (S-9 mix) used the 9000 times g supernatant of Arochlor-1254-induced rat liver homogenate at a level of 100 μl per ml of S-9 mix.

[8] = system: flies (family Muscidae); experiment: Anti-procreant comparison tests (sexual sterility or oviposition inhibition); format: in vivo; details: for inducing sexual sterility or inhibiting oviposition: comparison tests, Examples 6-9; for activity in the method of the invention (ineffective compounds): general statement of the description
Method: as §1
Oviposition inhibition tests: Samples of treated food with a container of water were placed in cages containing 100 newly-emerged adult flies (family Muscidae). After the flies had been exposed to the treated diet for 6-7 days, 1/2 inch of moist standard fly larva-rearing medium (CSMA) in souffle cups was placed in the cages for oviposition. After 4-6 hours, the cup was removed and examined for eggs. If no eggs were laid, the medium was offered again at intervals of 1 or 2 days until it had been offered three times or the flies had oviposited.
as §2, §3
For purpose of comparison the above-described tests were applied to 2-benzyl-4-t-butylphenol and 2-(α-methylbenzyl)-4-t-butylphenol.
For purposes of comparison the above-described tests were applied to 2,6-di-t-butyl-4-(4-methoxybenzyl) phenol and 2,6-di-t-butyl-4-(α-methyl-4-methoxybenzyl)phenol, both compounds being ineffective in inducing sexual sterility or in inhibiting oviposition.
For purposes of comparison the following compounds were tested and found to be ineffective in inducing sexual sterility or in inhibiting oviposition: 2-(4-methoxybenzyl)-3,4-methylenedioxyphenol, (α-methylbenzyl)-3,4-methylenedioxy-6-methoxybenzene, (α,α-dimethylbenzyl)-3,4-methylenedioxy-6-methoxybenzene, (α,α-dimethylbenzyl)-3,4-methylenedioxy-6-ethoxybenzene, (α,α-dimethylbenzyl)-3,4-methylenedioxy-6-n-propoxybenzene, (α,α-dimethylbenzyl)-3,4-methylenedioxy-6-n-butoxybenzene, (α,α-dimethylbenzyl)-3,4-methylenedioxy-6-n-pentoxybenzene, (α-vinylbenzyl)-3,4-methylenedioxy-6-methoxybenzene, (α-vinylbenzyl)-3,4-methylenedioxy-6-ethoxybenzene, (α-vinylbenzyl)-3,4-methylenedioxy-6-n-propoxybenzene.

[9] = system: mice; experiment: Oral toxicity in mice; details: mouse, in vivo, po
Method: (§4) Compounds D, A, and B were also assayed for oral toxicity in mice.

[10] = Oral toxicity in mice; details: mouse, in vivo; oral, mice; read-out: Estimated LD50
Method: as §4

Row | Compound | solubility in water [1] | Egg hatch ([2]; 0.01% in food) [%] | Pupal development ([2]; 0.01% in food) [%] | Egg hatch ([2]; 0.025% in food) [%] | Pupal development ([2]; 0.025% in food) [%] | Egg hatch ([2]; 0.05% in food) [%] | Pupal development ([2]; 0.05% in food) [%] | Inhibition of embryogenesis [3] [%] | Oviposition [3] [%] | Survival, Female [3] [%] | Survival, Male [3] [%] | Mortality, parent generation ([4]; 0.01% in food) [%] | Mortality, parent generation ([4]; 0.025% in food) [%] | Mortality, parent generation ([4]; 0.05% in food) [%] | Mortality, parent generation ([4]; 0.1% in food) [%] | Mortality, parent generation ([4]; 0.25% in food) [%] | Mortality, parent generation ([4]; 1.0% in food) [%] | GI-90 (concentration of growth inhibitor that would prevent and/or retard growth in 90% of the treated larvae) [6] [ppm] | mutagenic activity [7] | inducing sexual sterility or inhibiting oviposition [8] | other results
1 | COc1ccc(Cc2cc(C(C)(C)C)cc(C(C)(C)C)c2O)cc1 [C, 4,6-Di-t-butyl-2-(4-methoxybenzyl)phenol] | low solubility in water | 45 | 45 | 0 | 0 | 0 | 0 | 100 | 75.0 | 66.0 | 63.0 | 0 | 0 | 0 | 0 | 0 | 0 | – | – | – | Egg hatch ([2]; 0.1% in food): 0%; Pupal development ([2]; 0.1% in food): 0%; Egg hatch ([2]; 0.25% in food): 0%; Pupal development ([2]; 0.25% in food): 0%; Oviposition ([4]; 0.25% in food): Normal; Mortality, parent generation ([4]; 0.5% in food): 0%; Oviposition ([4]; 0.5% in food): None; Oviposition ([4]; 1.0% in food): None; sterilization of males ([5]; 0.25% in food): 100%
2 | CCCOc1cc2c(cc1C(C)c1ccc(OC)cc1)OCO2 (stereo not drawn) [I, (α-Methyl-4-methoxybenzyl)-3,4-methylenedioxy-6-n-propoxybenzene] | – | 63 | 63 | 38 | 38 | – | – | – | – | – | – | 0 | 0 | – | – | – | 0 | 0.042 | – | – | sterilization of males ([5]; 1.0% in food): 100%
3 | CCOc1cc2c(cc1Cc1ccc(OC)cc1)OCO2 [M, (4-Methoxybenzyl)-3,4-methylenedioxy-6-ethoxybenzene] | low solubility in water | 19 | 19 | 0 | 0 | 0 | 0 | 99.8 | 55.0 | 88.7 | 35.0 | 0 | 0 | 0 | 0 | – | – | – | – | – | revertant frequencies ([7]; 10-10,000 μg/plate in TA-100 and S-9): exceeded the mean control value plus two or three standard deviations; mutagenic response relative to known mutagenic agents which revert this strain ([7]; TA-100 and S-9): extremely weak
4 | CCCOc1cc2c(cc1Cc1ccc(OC)cc1)OCO2 [N, (4-Methoxybenzyl)-3,4-methylenedioxy-6n-propoxybenzene] | – | – | – | – | – | 33 | 33 | – | – | – | – | – | – | 0 | 0 | 75 | – | – | non-mutagenic | – | Egg hatch ([2]; 0.1% in food): 0%; Pupal development ([2]; 0.1% in food): 0%
5 | C=CCc1cc2c(cc1Cc1ccc(OC)cc1)OCO2 [CC, (4-Methoxybenzyl)-3,4-methylenedioxy-6-(2-propenyl)benzene] | low solubility in water | 15 | 15 | 0 | 0 | – | – | 100 | 65.0 | 92.7 | 45.0 | 0 | 0 | 0 | 0 | 50 | – | 0.2 | non-mutagenic | – | –
6 | COc1ccc(Cc2cc(C(C)(C)C)c(O)c(C(C)(C)C)c2)cc1 [F, 2,6-Di-t-butyl-4-(4-methoxybenzyl)phenol] | – | – | – | – | – | – | – | – | – | – | – | – | – | – | – | – | – | 0.042 | – | ineffective | activity in the method of the invention (ineffective compounds) [8]: ineffective
7 | COc1ccc(C(C)c2cc(C(C)(C)C)c(O)c(C(C)(C)C)c2)cc1 (stereo not drawn) [Compound G, 2,6-Di-t-butyl-4-(α-methyl-4-methoxybenzyl)phenol] | – | – | – | – | – | – | – | – | – | – | – | – | – | – | – | – | – | – | – | ineffective | activity in the method of the invention (ineffective compounds) [8]: ineffective
8 | (α-Vinylbenzyl)-3,4-methylenedioxy-6-n-propoxybenzene [GG] | – | – | – | – | – | – | – | – | – | – | – | – | – | – | – | – | – | – | – | ineffective | –
9 | 2-(4-methoxybenzyl)-3,4-methylenedioxyphenol [reference compound] | – | – | – | – | – | – | – | – | – | – | – | – | – | – | – | – | – | – | – | ineffective | –
10 | COc1ccc(C(C)c2cc(C(C)(C)C)cc(C(C)(C)C)c2O)cc1 (stereo not drawn) [B, 4,6-di-t-butyl-2-(α-methyl-4-methoxybenzyl)phenol] | – | – | – | – | – | – | – | – | – | – | – | – | – | – | – | 0 | 0 | – | non-mutagenic | – | oral toxicity (in words) [9]: only slightly toxic; LD50 [10]: 3550 mg/kg; Egg hatch ([2]; 0.25% in food): 18%; Pupal development ([2]; 0.25% in food): 18%; Egg hatch ([2]; 0.5% in food): 0%; Pupal development ([2]; 0.5% in food): 0%; Egg hatch ([2]; 1.0% in food): 0%; Pupal development ([2]; 1.0% in food): 0%; Mortality, parent generation ([4]; 0.5% in food): 0%
